From patent US20200030455A1, “MULTISTEP TUMOR TARGETING BY TAGGED ANTIBODY DERIVATIVES AND TAGGED DRUGS” (ISTITUTO BIOCHIMICO ITALIANO GIOVANNI LORENZINI S.P.A, priority 2017, published 2020)

Legend:
[1] = test system: SK-BR-3 breast carcinoma cells; experiment: 3H-Thymidine incorporation (cell proliferation) assay; assay type: cell-based, human; settings: drug alone, without Toolbox cocktail; 5 and 50 μM; 72 h
Experimental: NAX 098 was modified by covalent addition of the polypeptide StrepTag ([…]), as also shown in (A). SK-BR-3 breast carcinoma cells were seeded in 96-well plates (quadruplicates), and cultured for 30 min in the presence of ScFv (10 μg/ml). Meanwhile, equal molar concentrations of NAX 098 and NAX […] (or RPMI 1640 medium, as a control) were pre-incubated with StrepTactMult in complete culture medium (RPMI 1640 containing 10% bovine serum) to form drug: StrepTactin complexes. The drug: StrepTactin complexes were added to separate cultures to yield a final StrpTactMult concentration of 0.75 μg/well (approximately 3.2 μg/ml), and two final drug concentrations of 5 and 50 μM, as indicated in (B). As a control, equal amounts of NAX 098 and NAX […] drugs were added to separate wells in the absence of the Toolbox cocktail. All the cells were cultured for 72 h, and ^3H-Thymidine incorporation was assessed over a 4 h radioactive pulse. Results were expressed as percent of radioactive Thymidine incorporation as compared to untreated (RPMI 1640 vehicle alone) control cells.

[2] = test system: ERBB2 pathway (c-Fos promoter reporter) in BRC 230 breast carcinoma cells; experiment: c-Fos promoter reporter (luminescence, RLU) assay of ERBB2 signaling; assay type: cell-based
Source text: Mertansine was StrepTagged using a linker-spacer (depicted in A). The Strep-tag peptide WSHPQFEK (SEQ ID NO 2) was linked to the mertansine thiol group using the protocol disclosed in Bioconjugate Techniques, 3rd Edition Bioconjugate Techniques, 3rd Edition (2013) by Greg T. Hermanson. BRC 230 breast carcinoma cells, expressing moderate levels of ERBB2 were stably transfected with a promoter-reporter gene construct in which luciferase is placed under the control of the c-Fos promoter. […] Therefore, c-Fos activation is proportional to ERBB2 signaling, and luminescence is expected to decrease in response to the Toolbox treatment. BRC transfectants were seeded in 96-well plates (quadruplicates), and cultured for 24 h either in the presence or in the absence of the ERB-specific growth factor Neuregulin 1 (NRG-1) at a concentration of 5 nM, as indicated. During the last 30 min of this incubation ScFv (10 μg/ml) was added, where indicated. Meanwhile, equal molar concentrations of StrepTagged Mertansine (or RPMI 1640 medium, as a control) were pre-incubated with StrepTactMult in complete culture medium (RPMI 1640 containing 10% bovine serum) to form drug: StrepTactin complexes. […] All the cells were cultured for additional 72 h, and Relative Luminescence Units (RLU) were assessed in a luminometer.

For `COc1ccc2c(CCc3ccc(Cl)cc3)c3[n+](cc2c1OCCCN1C(=O)C=CC1=O)CCc1cc2c(cc1-3)OCO2` [NAX 098, 9-(3-propylmaleimide)-13-[2-(4-chlorophenyl)ethyl]berberine], the “inhibition of cell proliferation (3H-Thymidine incorporation vs untreated control)” value [1] was “strongly inhibited cell proliferation”.

For “StrepTagged Mertansine: Strep-tag peptide WSHPQFEK linked to the mertansine thiol group using a linker-spacer”, the “activity of the ERBB2 pathway (Relative Luminescence Units)” value ([2]; BRC 230 transfectants, with or without NRG-1 5 nM, ScFv 10 μg/ml, drug 5 nM, 72 h) was “inhibited the ERBB2 pathway” and the “activity of the StrepTagged drug before system-mediated dispatch” value ([2]; figure legend of Drawing 4) was “inactivates the drug”.
